Measurements as given in patent US4468511A, “C-20- And C-23-Modified macrolide derivatives” (Eli Lilly and Company, priority 1983, dated 1984).
Like-named read-outs stand apart in the source and are kept apart here.

Assays:
[1] = system: Staphylococcus epidermidis EPI2; assay: MIC, standard agar-dilution assay; assay type: cell-based
Experimental: (§1) The MIC's in Table II were determined by standard agar-dilution assays. The MIC's in Table III were obtained using a conventional broth-dilution microtiter test.

[2] = system: Staphylococcus aureus X400; assay: MIC, standard agar-dilution assay; assay type: cell-based
Experimental: as §1

[3] = system: Haemophilus influenzae 76; assay: MIC, standard agar-dilution assay; assay type: cell-based; details: Haemophilus influenzae, 76
Experimental: as §1

[4] = system: Haemophilus influenzae C.L.; assay: MIC, standard agar-dilution assay; assay type: cell-based
Experimental: as §1

[5] = system: Streptococcus pneumoniae Park I; assay: MIC, standard agar-dilution assay; assay type: cell-based; details: Streptococcus pneumoniae
Experimental: (§2) Certain of the derivatives are active against some gram-negative bacteria, such as Pasteurella species. The MIC's in Table II were determined by standard agar-dilution assays. The MIC's in Table III were obtained using a conventional broth-dilution microtiter test.

[6] = system: Streptococcus Group D X66; assay: MIC, standard agar-dilution assay; assay type: cell-based
Experimental: as §2

[7] = system: Streptococcus pyogenes C203; assay: MIC, standard agar-dilution assay; assay type: cell-based
Experimental: as §2

[8] = system: Staphylococcus aureus V41; assay: MIC, standard agar-dilution assay; assay type: cell-based; details: Staphylococcus aureus, V41
Experimental: as §2

[9] = system: Streptococcus pyogenes 9960; assay: MIC, standard agar-dilution assay; assay type: cell-based
Experimental: as §2

[10] = system: Staphylococcus aureus X1.1; assay: MIC, standard agar-dilution assay; assay type: cell-based
Experimental: as §2

[11] = system: Klebsiella pneumoniae X26; assay: MIC, standard agar-dilution assay; assay type: cell-based
Experimental: as §2

Escherichia coli EC14 = assay: MIC, standard agar-dilution assay; assay type: cell-based; details: agar-dilution; Escherichia coli EC14; read-out: MIC
Experimental: as §2

[12] = system: Klebsiella pneumoniae KAE; assay: MIC, standard agar-dilution assay; assay type: cell-based; details: agar-dilution; Klebsiella pneumoniae KAE; read-out: MIC
Experimental: as §2

Escherichia coli TEM = assay: MIC, standard agar-dilution assay; assay type: cell-based; details: agar-dilution; Escherichia coli TEM; read-out: MIC
Experimental: as §2

[13] = system: Pasteurella multocida 40G; assay: MIC, conventional broth-dilution microtiter test; assay type: cell-based; details: broth-dilution microtiter; Pasteurella multocida 40G; read-out: MIC
Experimental: as §2

[14] = system: Pasteurella hemolytica 23C; assay: MIC, conventional broth-dilution microtiter test; assay type: cell-based; details: broth-dilution microtiter; Pasteurella hemolytica 23C; read-out: MIC
Experimental: as §2

[15] = system: Pasteurella hemolytica 22C; assay: MIC, conventional broth-dilution microtiter test; assay type: cell-based; details: broth-dilution microtiter; Pasteurella hemolytica 22C; read-out: MIC
Experimental: as §2

Mycoplasma gallisepticum = assay: MIC, conventional broth-dilution microtiter test; assay type: cell-based; details: Mycoplasmoides gallisepticum; broth-dilution microtiter; Mycoplasma gallisepticum; read-out: MIC
Experimental: as §2

Staphylococcus aureus = assay: MIC, conventional broth-dilution microtiter test; assay type: cell-based; details: broth-dilution microtiter, read-out: MIC
Experimental: as §2

Streptococcus sp. 80 = assay: MIC, conventional broth-dilution microtiter test; assay type: cell-based; details: broth-dilution microtiter; Streptococcus sp. 80; read-out: MIC
Experimental: as §2

Mycoplasma hyorhinis = assay: MIC, conventional broth-dilution microtiter test; assay type: cell-based; details: broth-dilution microtiter; Mycoplasma hyorhinis; read-out: MIC
Experimental: as §2

[16] = system: Mycoplasma gallisepticum 34159; assay: MIC, conventional broth-dilution microtiter test; assay type: cell-based; details: Mycoplasmoides gallisepticum; broth-dilution microtiter; Mycoplasma gallisepticum 34159, Resistant strain; read-out: MIC
Experimental: as §2

[17] = system: Mycoplasma gallisepticum 41313; assay: MIC, conventional broth-dilution microtiter test; assay type: cell-based; details: Mycoplasmoides gallisepticum; broth-dilution microtiter; Mycoplasma gallisepticum 41313, Resistant strain; read-out: MIC
Experimental: as §2

[18] = system: Pasteurella multocida 17E; assay: MIC, conventional broth-dilution microtiter test; assay type: cell-based; details: broth-dilution microtiter; Pasteurella multocida 17E, Bovine isolate; read-out: MIC
Experimental: as §2

[19] = system: Pasteurella multocida 60A; assay: MIC, conventional broth-dilution microtiter test; assay type: cell-based; details: broth-dilution microtiter; Pasteurella multocida 60A, Avian isolate; read-out: MIC
Experimental: as §2

[20] = system: Pasteurella hemolytica 41D; assay: MIC, conventional broth-dilution microtiter test; assay type: cell-based; details: broth-dilution microtiter; Pasteurella hemolytica 41D; read-out: MIC
Experimental: as §2

Mycoplasma synoviae = assay: MIC, conventional broth-dilution microtiter test; assay type: cell-based; details: Mycoplasmopsis synoviae; broth-dilution microtiter; Mycoplasma synoviae; read-out: MIC
Experimental: as §2

[21] = system: Pasteurella multocida 68C; assay: MIC, conventional broth-dilution microtiter test; assay type: cell-based; details: broth-dilution microtiter; Pasteurella multocida 68C; read-out: MIC
Experimental: as §2

[22] = system: Pasteurella multocida 22A; assay: MIC, conventional broth-dilution microtiter test; assay type: cell-based; details: broth-dilution microtiter; Pasteurella multocida 22A; read-out: MIC
Experimental: as §2

[23] = system: Staphylococcus aureus S13E; assay: microbe, parasite or virus in culture; assay type: cell-based
Experimental: as §1

[24] = system: Staphylococcus epidermidis EPI1; assay: microbe, parasite or virus in culture; assay type: cell-based; details: agar-dilution; Staphylococcus epidermidis EPI1; read-out: MIC
Experimental: as §1

[25] = system: Streptococcus pyogenes C203; assay: Protection of mice experimentally infected with S. pyogenes C203; assay type: in vivo; details: mg/kg × 2, doses given 1 and 4 hours postinfection
Experimental: Some of the derivatives of this invention have shown in vivo antimicrobial activity against experimentally-induced infections in laboratory animals. When two doses of test compound were administered to mice experimentally infected with S. pyogenes C203, the activity observed was measured as an ED50 value [effective dose in mg/kg to protect 50% of the test animals: see Warren Wick, et al., J. Bacteriol. 81, 233-235 (1961)].

[26] = Staphylococcus epidermidis, EPI2
[27] = agar-dilution, Haemophilus influenzae C.L., Ampicillin-sensitive strain, read-out: MIC
[28] = agar-dilution, Streptococcus Group D X66, read-out: MIC
[29] = agar-dilution, Streptococcus 9960, read-out: MIC
[30] = agar-dilution, Klebsiella pneumoniae X26, read-out: MIC
[31] = agar-dilution, Staphylococcus aureus X400, Methicillin-resistant strain, read-out: MIC
[32] = agar-dilution, Streptococcus pyogenes C203, read-out: MIC
[33] = agar-dilution, Staphylococcus aureus X1.1, read-out: MIC

CCC1OC(=O)CC(O)C(C)C(OC2OC(C)C(O)C(N(C)C)C2O)C(CCN(C)C)CC(C)C(=O)C=CC(C)=CC1CO (stereo not shown) [Compound 2, 20-N-Dimethylamino-20-deoxy-20-dihydro-OMT]
12.5 µg/mL: MIC [21]
16 µg/mL: MIC [4, 27] | MIC [11, 30] | MIC [24]
> 128 µg/mL: MIC [6, 28] | MIC [9, 29] | MIC (Escherichia coli EC14) | MIC [12]
50 µg/mL: MIC [13] | MIC [14] | MIC [15] | MIC (Mycoplasma gallisepticum) | MIC (Staphylococcus aureus) | MIC (Mycoplasma hyorhinis) | MIC [17] | MIC [20]
> 50 µg/mL: MIC [16] | MIC (Mycoplasma synoviae)
32 µg/mL: MIC [3] | MIC [5] | MIC ([7]; Streptococcus pyogenes, C203) | MIC [8] | MIC ([10]; Staphylococcus aureus, X1.1) | MIC [23]
64 µg/mL: MIC [1, 26] | MIC ([2]; Staphylococcus aureus, X400)
25 µg/mL: MIC (Streptococcus sp. 80) | MIC [18] | MIC [19] | MIC [22]
128 µg/mL: MIC (Escherichia coli TEM)

CCC1OC(=O)CC(O)C(C)C(OC2OC(C)C(O)C(N(C)C)C2O)C(CCNC)CC(C)C(=O)C=CC(C)=CC1CO (stereo not shown) [Compound 3, 20-N-Methylamino-20-deoxy-20-dihydro-OMT]
16 µg/mL: MIC [5]
32 µg/mL: MIC [10, 33] | MIC [24]
64 µg/mL: MIC [1, 26] | MIC [8] | MIC ([11]; Klebsiella pneumoniae, X26) | MIC [23]
> 50 µg/mL: MIC (Mycoplasma hyorhinis) | MIC [16]
50 µg/mL: MIC [13] | MIC [14] | MIC [15] | MIC (Mycoplasma gallisepticum) | MIC (Staphylococcus aureus) | MIC (Streptococcus sp. 80) | MIC [18] | MIC [19] | MIC [20] | MIC [22]
128 µg/mL: MIC [2, 31] | MIC [3] | MIC ([4]; Haemophilus influenzae) | MIC [7, 32] | MIC (Escherichia coli TEM)
> 128 µg/mL: MIC [6, 28] | MIC [9, 29] | MIC (Escherichia coli EC14) | MIC [12]
25 µg/mL: MIC (Mycoplasma synoviae) | MIC [21]

CCC1OC(=O)CC(O)C(C)C(OC2OC(C)C(OC3CC(C)(O)C(O)C(C)O3)C(N(C)C)C2O)C(CCNCCc2ccccc2)CC(C)C(=O)C=CC(C)=CC1CO (stereo not shown) [Compound 16]
6.25 µg/mL: MIC (Mycoplasma gallisepticum) | MIC (Mycoplasma synoviae)
> 128 µg/mL: MIC (Escherichia coli EC14) | MIC [12] | MIC (Escherichia coli TEM)
10.4 mg/kg: ED50 ([25]; C203, sc, mice, subcutaneous, read-out: ED50 Subcutaneous)
88 mg/kg: ED50 ([25]; C203, mice, oral, read-out: ED50 Oral)
> 50 µg/mL: MIC [14] | MIC [15] | MIC (Mycoplasma hyorhinis) | MIC [16] | MIC [17] | MIC [18] | MIC [19] | MIC [20] | MIC [21] | MIC [22]
12.5 µg/mL: MIC (Staphylococcus aureus) | MIC (Streptococcus sp. 80)
8 µg/mL: MIC [7, 32]
50 µg/mL: MIC [13]
16 µg/mL: MIC [3] | MIC [10, 33] | MIC [24]
64 µg/mL: MIC ([1]; agar-dilution, Staphylococcus epidermidis EPI2, read-out: MIC) | MIC [2, 31] | MIC [4, 27]
128 µg/mL: MIC [11, 30]
32 µg/mL: MIC [6] | MIC [8] | MIC [9]; 9960 | MIC [23]
4 µg/mL: MIC [5]
